In test [1] the target is T1, FK-506 binding protein (FKBP) (Homo sapiens, UniProt P62942). The experiment in a line: Inhibition of PPIase (rotamase) enzyme activity of FKBP (apparent Ki). It counts as biochemical. Particulars: substrate N-succinylAla-Ala-Pro-Phe-p-nitroanilide, chymotrypsin-coupled. The source says: The inhibition of the PPIase (rotamase) enzyme activity of the FKBP (apparent "Ki" values) can also be measured according to the methods described by either Harding, M. W. et al., Nature 341:758-760 (1989) or Siekierka, J. J. et al., Nature 341:755-757 (1989). The cis-trans isomerization of the proline-alanine peptide bond in a model substrate, N-succinylAla-Ala-Pro-Phe-p-nitroanilide, is monitored spectrophotometrically in a coupled assay with chymotrypsin, which releases 4-nitroanilide from the trans form of the substrate. Fischer, G. et al., Nature 337:476-478 (1989). The inhibitory effect of the addition of different concentrations of inhibitor on the extent of the reaction is determined, and analysis of the change in first order rate constant as a function of inhibitor concentration yields an estimate of the apparent Ki value.
T1 sequence (P62942 whole entry): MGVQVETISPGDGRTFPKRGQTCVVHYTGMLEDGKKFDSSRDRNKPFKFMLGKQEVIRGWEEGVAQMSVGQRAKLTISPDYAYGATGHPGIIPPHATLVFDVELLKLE

Test [2] deals with T1, FK-506 binding protein (FKBP). The experiment in a line: Competitive binding to FKBP against [3H]dihydro-FK-506 (apparent Kd). Conditions: competition with [3H]dihydro-FK-506.
In test [3] the test system is human peripheral blood lymphocytes. As to the kind of experiment: Mitogenesis assay OKT3: inhibition of proliferation of human PBLs. Format: cell-based. Particulars: Lymphocyte, OKT3 (10^-4 dilution final), 48 h incubation. The procedure: (§1) PMA and OKT3mitogens used to stimulate proliferation of human peripheral
(§2) blood lymphocytes (PBC). Compounds are evaluated on their ability to
(§3) Fresh peripheral blood lymphocytes (PBLs) from LeukoPak cells or whole blood from random normal blood donors (tested HIV-negative and hepatitis negative) are isolated and separated by density centrifugation over Histopaque 1077 (Sigma Chemical Co., St. Louis, Mo.). The murine CTLL cytotoxic T cell line and the human Jurkat T cell line are from ATCC (CTLL-2 ATCC TIB214, JURKAT CLONE E6-1 ATCC TIBl52). The human allogeneic B cell lines used for activation of the fresh PBLs are EBV-transformed lymphocytes from normal healthy adult donors with two completely different HLAhaplotypes. All cell lines were routinely tested for the presence of Mycolasma contamination using the GibcoMycotect test kit and are Mycolasma-free. Culture medium consksts of RPMI 1640 (Gibco, Grand Island, N.Y.) containing penicillin (50 U/ml) and streptomycin (50 μg/ml), L-glutamine 2 mM, 2 mercaptoethanol (5×10^-5), 10% heat-inactivated FCS and 10 mM HEPES.
(§4) All chemical stocks were dissolved in DMSO.
(§5) Mitogenesis Assays ("PMA" and "OKT3")
(§6) After 48 h incubation (37° C., 5% CO2), cells were pulsed with 1 μCi of ^3 H-thymidine, harvested 24 h later with a Tom Tek cell harvester, and counted in LKB β-scintillation counter.

Test [4] has the same test system. The experiment in a line: Mitogenesis assay PMA: inhibition of proliferation of human PBLs. It counts as cell-based. Conditions: Lymphocyte, PMA (10 ng/ml) plus ionomycin (250 ng/ml), 48 h incubation. As to the method: as §1, §2, §3, §4, §5, §6
Test [5] has as its system PBLs stimulated with LB human viral transformed B lymphoblastoid cells. The experiment in a line: MLR bioassay LB: inhibition of proliferation in mixed lymphocyte reaction. Format: cell-based. Conditions: Lymphoblastoid cell, pulsed on day 6, harvested 24 h later. As to the method: (§7) LB and JVMhuman viraltransformed B lymphoblastoid cell lines stimulated t
(§8) proliferate in a mixed lymphocyte reaction (MLR). The compounds are
(§9) evaluated on their ability to inhibit this proliferation.
as §3, §4
(§10) MLR Bioassays ("LB" and "JVM")
(§11) Antigen activated proliferation of PBLs in a primary mixed lymphocyte reaction was assessed in the presence or absence of different concentrations of tested compounds and control drugs. 5×10^4 fresh PBLs were stimulated with 5×10^3 of Mitomycin C treated-allogeneic EBV-transformed β-lymphoglastoid cells, IB and JVM, in a final volume of 200 μl per well in 96-well round-bottomed plates (Mishell, B. B. and S. M. Shiigi, Selected Methods in Cellular Immunology W. H. Freeman and Co., San Francisco, Calif. (1980); Nelson, P. A. et al., Transplantation 50:286 (1990)). Cultures were pulsed on day 6, harvested 24 h later and counted as in previous section.

Test [6] deals with PBLs stimulated with JVM human viral transformed B lymphoblastoid cells. As to the kind of experiment: MLR bioassay JVM: inhibition of proliferation in mixed lymphocyte reaction. Conditions: Lymphoblastoid cell, pulsed on day 6, harvested 24 h later. Format: cell-based. As to the method:
as §7, §8, §9, §3, §4, §10, §11

Our source for the Ki, Kd and IC50 values is patent publication US5516797A, “Immunosuppressive compounds” (Vertex Pharmaceuticals, Incorporated, priority 1994, dated 1996).

pIC50, pKd, pKi: −log10 of the molar value.

Regarding `O=C(C(=O)N1CCC[C@H]1C(=O)OCc1ccccc1)c1ccccc1` [Compound 2], in test [1], the negative-log Ki (pKi) – broadly, −log10 of the Ki, conventionally taken in molar units – is 4.60. The pKd (in general, the negative decadic logarithm of the Kd, by convention in mol/L) in test [2] was below 5.30.

As for `O=C(C(=O)N1CCCC[C@H]1C(=O)Oc1ccc2ccccc2c1)c1ccccc1` [Compound 6], the pKi in test [1] is 5.15. Also, the pKd in test [2] was 6.00.

Turning to `O=C(C(=O)N1CCCC[C@H]1C(=O)OCc1ccccc1)c1ccco1` [Compound 20, (S)-Benzyl N-(2-furylglyoxyl)pipecolate], the pKd in test [2] is below 4.92.

Consider `COC(=O)C(=O)N1CCCC[C@H]1C(=O)OCc1ccccc1` [Compound 31], for which the pKd in test [2] was below 4.30.

For the molecule `COC(=O)C(=O)N1CCCC[C@H]1C(=O)OCCCC1CCCCC1` [Compound 33], in test [2], the pKd is 4.92.

Turning to `COc1cc(C(=O)C(=O)N2CCCC[C@H]2C(=O)OCc2ccc(Oc3ccccc3)cc2)cc(OC)c1OC` [Compound 73], in test [1], the pKi was 6.10. For the same molecule, the pIC50 (usually the IC50 on a negative log10 scale, so that one unit is a factor of ten) in test [3] was below 5.00; in test [4], 5.10; in test [5] it was 5.35; in test [6], 5.22.

In the case of `CCCCOc1cccc(C(=O)C(=O)N2CCCC[C@H]2C(=O)OCc2ccccc2)c1` [Compound 75], in test [1], the pKi was 6.44. Besides, the pIC50 in test [3] was below 5.00; in test [4], 5.10; in test [5] it was 5.05; in test [6], below 5.00.

Consider `CC(C)Oc1cccc(C(=O)C(=O)N2CCCC[C@H]2C(=O)OCCCCc2ccccc2)c1` [Compound 76], for which the pKi in test [1] is 7.00. Besides, the pIC50 in test [3] was 5.00; in test [4] it was 5.30; in test [5], 5.05; in test [6] it was below 5.00.

Regarding `COc1cc(C(=O)C(=O)N2CCCC[C@H]2C(=O)OCc2ccc(I)cc2)cc(OC)c1OC` [Compound 78], the pKi in test [1] is 5.85. Further, the pIC50 in test [3], in test [4], in test [5] and in test [6] was below 5.00 in each case.

In the case of `COc1cc(C(=O)C(=O)N2CCCC[C@H]2C(=O)OCCc2ccc3ccccc3c2)cc(OC)c1OC` [Compound 79], the pKi in test [1] was 6.66. Besides, the pIC50 is 5.60 in test [3], 5.00 in test [4], below 5.00 in test [5] and below 5.00 in test [6].

For `COc1cc(C(=O)C(=O)N2CCCC[C@H]2C(=O)OCCc2cccc3ccccc23)cc(OC)c1OC` [Compound 80], the pKi in test [1] is 6.30. Also, the pIC50 in test [3] is 5.40; in test [4] it was 5.52; in test [5], 5.00; in test [6], 5.00.

For `COc1cc(C(=O)C(=O)N2CCCC[C@H]2C(=O)OCCCc2ccccc2)cc(OC)c1OC` [Compound 83], the pKi in test [1] was 6.96. Besides, the pIC50 in test [3] is 5.26; in test [4], 5.26; in test [5] it was 5.07; in test [6], 5.12.

Consider `COc1cc(C(=O)C(=O)N2CCCC[C@H]2C(=O)OCC=CCc2ccccc2)cc(OC)c1OC` [Compound 86], for which the pKi in test [1] was 6.10. Further, the pIC50 in test [3] was below 5.00; in test [4] it was 5.05; in test [5] it was below 5.00; in test [6], below 5.00.

As for `COc1cc(C(=O)C(=O)N2CCCC[C@H]2C(=O)OCCC=Cc2ccccc2)cc(OC)c1OC` [Compound 87], in test [1], the pKi is 6.30. Moreover, the pIC50 in test [3] was below 5.00; in test [4] it was 5.15; in test [5], below 5.00; in test [6], below 5.00.

Regarding `O=C(C(=O)N1CCCC[C@H]1C(=O)OCCCc1ccccc1)C1=CCCCC1` [Compound 89], in test [1], the pKi is 6.11. Besides, the pIC50 in test [3] is below 5.00; in test [4], 5.10; in test [5], below 5.00; in test [6], below 5.00.

`O=C(OCCCc1ccccc1)[C@@H]1CCCCN1C(=O)C(=O)C1(F)CCCCC1` [Compound 91]: the pKi in test [1] was 6.27. Also, the pIC50 in test [3], in test [4], in test [5] and in test [6] was below 5.00 each time.

Regarding `CCCCOc1cccc(C(=O)C(=O)N2CCCC[C@H]2C(=O)OCCCc2ccccc2)c1` [Compound 92], the pKi in test [1] is 5.85. For the same molecule, the pIC50 is below 5.00 in test [3], 5.05 in test [4], below 5.00 in test [5] and below 5.00 in test [6].

With `O=C(Cc1ccccc1)C(=O)N1CCCC[C@H]1C(=O)OCCCCc1ccccc1` [Compound 95], the pKi in test [1] is 6.46. For the same molecule, the pIC50 in test [3], in test [4], in test [5] and in test [6] was below 5.00 in each case.

For `CC(C)(C)c1ccc(C(=O)C(=O)N2CCCC[C@H]2C(=O)OCCCCc2ccccc2)cc1` [Compound 97], in test [1], the pKi was 6.22. The negative-log IC50 (pIC50) in test [3], in test [4], in test [5] and in test [6] was below 5.00 in each case.

In the case of `O=C(CC1CCCCC1)C(=O)N1CCCC[C@H]1C(=O)OCCCCc1ccccc1` [Compound 99], the pKi in test [1] was 6.92. For the same molecule, the pIC50 in test [3], in test [4], in test [5] and in test [6] was below 5.00 in each case.

As for `O=C(C(=O)N1CCCC[C@H]1C(=O)OCCCCc1ccccc1)c1ccc2c(c1)OCO2` [Compound 100], the pKi in test [1] was 6.60. Besides, the pIC50 in test [3], in test [4], in test [5] and in test [6] was below 5.00 throughout.

Take `O=C(C(=O)N1CCCC[C@H]1C(=O)OCCCCc1ccccc1)C1CCOCC1` [Compound 101]: in test [1], the pKi was 6.36. The pIC50 in test [3], in test [4], in test [5] and in test [6] was below 5.00 in each case.

Regarding `COc1ccc(C(=O)C(=O)N2CCCC[C@H]2C(=O)OCCCCc2ccccc2)cc1C1CCCCC1` [Compound 102], the negative logarithm of the Ki (pKi) in test [1] was 4.85. Also, the pIC50 in test [3] was below 5.00; in test [4] it was below 5.00; in test [5] it was 5.00; in test [6] it was 5.00.

As to `COc1ccc(COCc2coc(C(=O)C(=O)N3CCCC[C@H]3C(=O)OCCCCc3ccccc3)c2)cc1` [Compound 103], the pKi in test [1] was 6.15. In addition, the pIC50 was 5.00 in test [3], 5.15 in test [4], 5.00 in test [5] and below 5.00 in test [6].

Regarding `CC(C)(C)C(=O)C(=O)N1CCCC[C@H]1C(=O)OCCCCc1ccccc1` [Compound 104], in test [1], the pKi is 6.74. The pIC50 was below 5.00 in test [3], 5.40 in test [4], below 5.00 in test [5] and below 5.00 in test [6].

As for `CCC(=O)C(=O)N1CCCC[C@H]1C(=O)OCCCCc1ccccc1` [Compound 105], the pKi in test [1] was 5.80. Further, the pIC50 in test [3], in test [4], in test [5] and in test [6] was below 5.00 in each case.

As to `COc1cc(C(=O)C(=O)N2CCCC[C@H]2C(=O)OCCCn2cnc3ccccc32)cc(OC)c1OC` [Compound 106], the negative-log Ki (pKi) in test [1] is 6.96. The pIC50 in test [3] is below 5.00; in test [4], 5.15; in test [5] it was below 5.00; in test [6], below 5.00.

`COc1cc(C(=O)C(=O)N2CCCC[C@H]2C(=O)OCCCn2cnc3cncnc32)cc(OC)c1OC` [Compound 107]: in test [1], the pKi was 6.89. In addition, the pIC50 in test [3] was below 5.00; in test [4] it was 5.19; in test [5] it was below 5.00; in test [6], below 5.00.
